Key:
BRAF V600E = BRAF V600E (Homo sapiens (Human), UniProt P15056, V600E); test: Inhibitory activity against kinase BRAF V600E, Z'-LYTE method (Invitrogen); type: biochemical; details: 1 μM compound; read-out: Inhibition (% inhibition at 1 μM) against BRAF V600E
Description: Inhibitory activities Inhibitory activities of compounds against BRAF, and BRAF V600E were measured by Invitrogen using Z′-LYTE® Method as briefly described in the following. 4× Test compounds are dissolved in 1% DMSO. […] ATP solutions are diluted to a 4×ATP working concentration in Kinase Buffer (50 mM HEPES pH 7.5, 0.01% BRIJ-35, 10 mM MgCl2, 1 mM EGTA). Reaction started by 30-second shaking of mixture consisting of 2.5 μL 4× test compound, […] and 2.5 μL 4×ATP Solution on Bar-coded Corning, low volume NBS, black 384-well plate (Corning Cat. #3676). Then the mixture was incubated for 60-minute at room temperature for the kinase reaction, followed by addition of 5 μL of a 1:1024 dilution of development reagent A and 30-second plate shake. The mixture was then incubated for another 60-minute at room temperature for development reaction. Fluorescence was read by plate reader. IC50 was calculated by plotting the concentration of compound vs the percentage of inhibition in treated wells using GraphPad Prism 5.
Table 2 and 3 show % inhibition at 1 μM of several compounds of the invention against BRAF and BRAF V600E, respectively, using Z′-LYTE® method.
The scale utilized in Table 4 is as follows: +++ less than 100 nM; and ++ greater than 100 nM.

KDR (VEGFR2) = KDR (VEGFR2) (Homo sapiens (Human), UniProt P35968); test: Inhibitory activity against kinase KDR, Z'-LYTE method (Invitrogen); type: biochemical; details: 1 μM compound; read-out: Inhibition (% inhibition at 1 μM) against KDR
Description: Inhibitory activities of compounds against KDR (VEGFR2) were also measured by Invitrogen using Z′-LYTE® Method as described above with the following modification. The 2× KDR (VEGFR2)/Tyr 01 mixture is prepared in 50 mM HEPES pH 7.5, 0.01% BRIJ-35, 10 mM MgCl2, 1 mM EGTA. The final 10 μL Kinase Reaction consists of 0.5-11.7 ng KDR (VEGFR2) and 2 μM Tyr 01 in 50 mM HEPES pH 7.5, 0.01% BRIJ-35, 10 mM MgCl2, 1 mM EGTA. After the 1 hour Kinase Reaction incubation, 5 μL of a 1:256 dilution of Development Reagent B is added.
The scale utilized in Table 5 is as follows: +++ less than 100 nM; and ++ greater than 100 nM

A375 cells = test: Inhibition of cancer cell growth, MTT or MTS assay, A375; type: cell-based; details: Homo sapiens, A-375; 72 h incubation
Description: (§1) Inhibition of cell growth by compounds was measured using MTT or MTS assay. Tumor cell lines were purchased from ATCC (American Type Culture Collection, Manassas, Va.). All cell lines were maintained in RPMI 1640 (Hyclone) supplemented with 10% fetal bovine serum (FBS, Hyclone), glutamine (2 mM, Hyclone), and antibiotics (penicillin 100 U/mL and streptomycin 50 μg/mL) at 37° C. in a humidified atmosphere of 5% CO2 in air. Taxol (as a positive control, Sigma) and compounds were dissolved in DMSO (Sigma), and the final concentration of DMSO in the medium was 1%. Tumor cells were plated in 96-well plates at densities of about 2000 (A375) or 4000 (A549 and Colo205) cells/well of a 96-well plate and allowed to adhere/grow for 24 h. They were then treated with various concentrations of drug and incubated for 72 h. For MTT method, medium was then removed by inverting and tapping the plates. 100 μL of MTT (0.5 mg/ml) was added to each well followed by an incubated at 37° C. for 4 h. MTT was then removed and 200 μL of DMSO was added to each well, and the ODs at 570 nm were measured after a 5 second shaking cycle in a 96-well spectrophotometer. For MTS method, 20 μL MTS (CellTiter 96 Aqueous One Solution, Promega) was added to each well followed by an incubated at 37° C. for 2-4 h, solutions were then directly put in a 96-well spectrophotometer, and the ODs at 490 nm were measured.
(§2) All concentrations of compounds were tested in triplicate and controls were averaged over 4 wells. IC50 was calculated by plotting the concentration of compound vs the percentage of inhibition in treated wells using GraphPad Prism 5. […] The scale utilized in Tables […] is as follows: +++ less than 1000 nM; ++ between 1000 nM and 5000 nM; and + greater than 5000 nM. The scale utilized in Table 8 is as follows: +++ less than 2000 nM; ++ between 2000 nM and 5000 nM; and + greater than 5000 nM.

A549 cells = test: Inhibition of cancer cell growth, MTT or MTS assay, A549; type: cell-based; details: Homo sapiens, 72 h incubation
Description: as §1, §2

KDR (VEGFR2), sequence (P35968 20-1356): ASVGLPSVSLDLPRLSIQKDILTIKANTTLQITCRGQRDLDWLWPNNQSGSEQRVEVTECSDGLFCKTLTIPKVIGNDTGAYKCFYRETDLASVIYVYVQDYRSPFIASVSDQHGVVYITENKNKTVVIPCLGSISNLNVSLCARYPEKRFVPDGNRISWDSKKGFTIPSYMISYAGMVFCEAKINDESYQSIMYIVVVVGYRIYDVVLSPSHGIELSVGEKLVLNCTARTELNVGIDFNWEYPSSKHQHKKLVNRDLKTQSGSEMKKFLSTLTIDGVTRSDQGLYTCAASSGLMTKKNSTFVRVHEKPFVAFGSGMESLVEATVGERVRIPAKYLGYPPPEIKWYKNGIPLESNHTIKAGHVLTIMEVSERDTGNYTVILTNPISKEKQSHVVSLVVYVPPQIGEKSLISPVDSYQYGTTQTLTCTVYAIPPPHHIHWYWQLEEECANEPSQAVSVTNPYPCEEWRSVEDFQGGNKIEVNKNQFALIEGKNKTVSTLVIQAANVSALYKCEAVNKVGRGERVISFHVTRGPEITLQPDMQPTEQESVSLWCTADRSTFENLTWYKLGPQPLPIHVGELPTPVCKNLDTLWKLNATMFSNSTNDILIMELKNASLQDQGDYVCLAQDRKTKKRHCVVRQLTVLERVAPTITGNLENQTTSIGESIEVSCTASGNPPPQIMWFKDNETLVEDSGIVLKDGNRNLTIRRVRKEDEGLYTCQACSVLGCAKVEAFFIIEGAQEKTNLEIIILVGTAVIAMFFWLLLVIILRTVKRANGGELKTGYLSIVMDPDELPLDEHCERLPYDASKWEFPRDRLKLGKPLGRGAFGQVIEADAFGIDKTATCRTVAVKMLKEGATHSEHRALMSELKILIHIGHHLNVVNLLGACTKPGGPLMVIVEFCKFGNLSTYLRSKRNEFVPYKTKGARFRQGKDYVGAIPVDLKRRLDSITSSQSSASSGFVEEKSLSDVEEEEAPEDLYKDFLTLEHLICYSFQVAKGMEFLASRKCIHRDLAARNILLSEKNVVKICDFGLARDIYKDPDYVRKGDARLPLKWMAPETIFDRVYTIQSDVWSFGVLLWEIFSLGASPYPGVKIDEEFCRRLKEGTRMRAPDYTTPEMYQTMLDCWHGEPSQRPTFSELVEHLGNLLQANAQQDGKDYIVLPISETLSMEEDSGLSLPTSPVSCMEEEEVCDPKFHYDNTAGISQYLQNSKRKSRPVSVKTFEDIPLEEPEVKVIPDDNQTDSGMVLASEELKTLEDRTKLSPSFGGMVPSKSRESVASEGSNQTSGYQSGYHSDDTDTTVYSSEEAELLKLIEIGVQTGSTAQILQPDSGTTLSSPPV
BRAF V600E, sequence (P15056 whole entry V600E): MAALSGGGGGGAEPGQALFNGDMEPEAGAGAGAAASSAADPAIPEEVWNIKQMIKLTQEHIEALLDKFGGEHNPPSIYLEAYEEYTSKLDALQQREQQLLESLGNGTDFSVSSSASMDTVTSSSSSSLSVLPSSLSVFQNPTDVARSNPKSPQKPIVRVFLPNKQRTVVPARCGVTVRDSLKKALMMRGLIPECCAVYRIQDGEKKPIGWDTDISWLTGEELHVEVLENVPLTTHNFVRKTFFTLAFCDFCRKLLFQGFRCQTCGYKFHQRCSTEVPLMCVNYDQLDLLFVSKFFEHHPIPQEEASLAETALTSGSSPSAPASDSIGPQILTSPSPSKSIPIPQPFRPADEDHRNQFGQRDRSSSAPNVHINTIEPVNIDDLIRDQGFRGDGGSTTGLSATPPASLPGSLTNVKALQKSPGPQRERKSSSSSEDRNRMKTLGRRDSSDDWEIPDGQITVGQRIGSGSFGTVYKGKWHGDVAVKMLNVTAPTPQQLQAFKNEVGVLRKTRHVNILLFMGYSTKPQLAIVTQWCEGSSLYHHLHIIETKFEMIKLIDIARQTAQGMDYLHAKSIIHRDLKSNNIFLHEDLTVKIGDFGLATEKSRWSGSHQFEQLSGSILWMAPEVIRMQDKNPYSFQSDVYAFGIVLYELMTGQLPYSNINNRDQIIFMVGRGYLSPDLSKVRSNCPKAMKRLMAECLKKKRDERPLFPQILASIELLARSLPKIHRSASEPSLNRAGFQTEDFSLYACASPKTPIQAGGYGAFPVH

| inhibition at 1 µM (BRAF V600E) | inhibition at 1 µM (KDR (VEGFR2)) | IC50 (A375 cells) | IC50 (A549 cells) | SMILES |
| --- | --- | --- | --- | --- |
| 70 to 89% | > 89% | 1 to 5 µM | 2 to 5 µM | O=C(Nc1ccc(Oc2ccc3ncc(N4CCOCC4)nc3c2)cc1)Nc1ccc(F)c(C(F)(F)F)c1 [Compound C086, 1-(4-fluoro-3-(trifluoromethyl)phenyl)-3-(4-((3-morpholinoquinoxalin-6-yl)oxy)phenyl)urea] |
| > 89% | < 70% | 1 to 5 µM | 2 to 5 µM | O=C(Nc1cccc(F)c1)Nc1ccc(F)c(Oc2ccc3nccnc3c2)c1 [Compound C023, 1-(4-fluoro-3-(quinoxalin-6-yloxy)phenyl)-3-(3-fluorophenyl)urea] |
| 70 to 89% | > 89% | 1 to 5 µM | 2 to 5 µM | O=C(Nc1ccc(F)c(Oc2ccc3ncc(N4CCOCC4)nc3c2)c1)c1cccc(C(F)(F)F)c1 [Compound C026, N-(4-fluoro-3-((3-morpholinoquinoxalin-6-yl)oxy)phenyl)-3-(trifluoromethyl)benzamide] |
| 70 to 89% |  | > 5 µM | > 5 µM | O=C(Nc1ccc(C(F)(F)F)cc1)Nc1ccc(Oc2ccc3nccnc3c2)cc1F [Compound C097, 1-(2-fluoro-4-(quinoxalin-6-yloxy)phenyl)-3-(4-(trifluoromethyl)phenyl)urea] |
|  |  | > 5 µM | > 5 µM | CCCS(=O)(=O)Nc1cccc(Oc2ccc3nccnc3c2)c1 [Compound C007, N-(3-(quinoxalin-6-yloxy)phenyl)propane-1-sulfonamide] |
| > 89% | < 70% | > 5 µM | > 5 µM | O=C(Nc1cc(F)cc(Oc2ccc3nccnc3c2)c1)c1cccc(C(F)(F)F)c1 [Compound C015, N-(3-fluoro-5-(quinoxalin-6-yloxy)phenyl)-3-(trifluoromethyl)benzamide] |
| > 89% | < 70% | > 5 µM | > 5 µM | O=C(Nc1cccc(F)c1)Nc1cc(F)cc(Oc2ccc3ncc(N4CCOCC4)nc3c2)c1 [Compound C031, 1-(3-fluoro-5-((3-morpholinoquinoxalin-6-yl)oxy)phenyl)-3-(3-fluorophenyl)urea] |
| < 70% |  | > 5 µM | > 5 µM | O=C(Nc1ccc(Oc2ccc3nccnc3c2)cc1)c1ccc(Cl)c(C(F)(F)F)c1 [Compound C079, 4-chloro-N-(4-(quinoxalin-6-yloxy)phenyl)-3-(trifluoromethyl)benzamide] |
| 70 to 89% |  | > 5 µM | > 5 µM | O=C(Nc1cc(F)cc(Oc2ccc3nccnc3c2)c1)c1cccc(F)c1 [Compound C014, 3-fluoro-N-(3-fluoro-5-(quinoxalin-6-yloxy)phenyl)benzamide] |
| 70 to 89% |  | > 5 µM | 2 to 5 µM | O=C(Nc1cccc(F)c1)Nc1cc(F)cc(Oc2ccc3nccnc3c2)c1 [Compound C020, 1-(3-fluoro-5-(quinoxalin-6-yloxy)phenyl)-3-(3-fluorophenyl)urea] |
| < 70% |  | 1 to 5 µM |  | CCCS(=O)(=O)Nc1cc(F)cc(Oc2ccc3nccnc3c2)c1 [Compound C019, N-(3-fluoro-5-(quinoxalin-6-yloxy)phenyl)propane-1-sulfonamide] |
|  |  | > 5 µM | > 5 µM | CCCS(=O)(=O)Nc1ccc(F)c(Oc2ccc3ncc(N4CCOCC4)nc3c2)c1 [Compound C012, N-(4-fluoro-3-((3-morpholinoquinoxalin-6-yl)oxy)phenyl)propane-1-sulfonamide] |
| < 70% |  | > 5 µM |  | O=C(Nc1ccc(Oc2ccc3nccnc3c2)cc1F)c1cncc(C(F)(F)F)c1 [Compound C099, N-(2-fluoro-4-(quinoxalin-6-yloxy)phenyl)-5-(trifluoromethyl)nicotinamide] |
| < 70% |  | > 5 µM |  | O=C(Nc1ccc(Oc2ccc3nccnc3c2)cc1F)c1ccnc(C(F)(F)F)c1 [Compound C100, N-(2-fluoro-4-(quinoxalin-6-yloxy)phenyl)-2-(trifluoromethyl)isonicotinamide] |
| > 89% | 70 to 89% | 1 to 5 µM |  | O=C(Nc1ccc(F)cc1)Nc1ccc(F)c(Oc2ccc3ncc(N4CCOCC4)nc3c2)c1 [Compound C053, 1-(4-fluoro-3-((3-morpholinoquinoxalin-6-yl)oxy)phenyl)-3-(4-fluorophenyl)urea] |
| > 89% |  | > 5 µM | > 5 µM | O=C(Nc1cc(F)cc(Oc2ccc3nccnc3c2)c1)c1ccc(Cl)c(C(F)(F)F)c1 [Compound C016, 4-chloro-N-(3-fluoro-5-(quinoxalin-6-yloxy)phenyl)-3-(trifluoromethyl)benzamide] |
| 70 to 89% |  | < 1 µM |  | O=C(Nc1cccc(Cl)c1)Nc1ccc(Oc2ccc3nccnc3c2)c(F)c1 [Compound C101, 1-(3-chlorophenyl)-3-(3-fluoro-4-(quinoxalin-6-yloxy)phenyl)urea] |
|  |  | > 5 µM | > 5 µM | CCCS(=O)(=O)Nc1ccc(Oc2ccc3nccnc3c2)cc1 [Compound C080, N-(4-(quinoxalin-6-yloxy)phenyl)propane-1-sulfonamide] |
| < 70% | < 70% | > 5 µM |  | CCCNC(=O)Nc1cccc(Oc2ccc3nccnc3c2)c1 [Compound C071, 1-propyl-3-(3-(quinoxalin-6-yloxy)phenyl)urea] |
| 70 to 89% | 70 to 89% | > 5 µM |  | O=C(Nc1ccc(Oc2ccc3ncc(N4CCOCC4)nc3c2)cc1)Nc1ccc(C(F)(F)F)cc1 [Compound C083, 1-(4-((3-morpholinoquinoxalin-6-yl)oxy)phenyl)-3-(4-(trifluoromethyl)phenyl)urea] |
|  |  | 1 to 5 µM | 2 to 5 µM | O=C(Nc1ccc(F)c(Oc2ccc3ncc(N4CCOCC4)nc3c2)c1)c1ccc(Cl)c(C(F)(F)F)c1 [Compound C008, 4-chloro-N-(4-fluoro-3-((3-morpholinoquinoxalin-6-yl)oxy)phenyl)-3-(trifluoromethyl)benzamide] |
| < 70% |  | 1 to 5 µM | > 5 µM | O=C(Nc1ccc(Oc2ccc3nccnc3c2)cc1)c1cccc(F)c1 [Compound C077, 3-fluoro-N-(4-(quinoxalin-6-yloxy)phenyl)benzamide] |
|  |  | > 5 µM | > 5 µM | CCCS(=O)(=O)Nc1ccc(F)c(Oc2ccc3nccnc3c2)c1 [Compound C013, N-(4-fluoro-3-(quinoxalin-6-yloxy)phenyl)propane-1-sulfonamide] |
| 70 to 89% | < 70% | > 5 µM |  | O=C(Nc1cccc(Oc2ccc3nccnc3c2)c1)c1cccc(F)c1 [Compound C004, 3-fluoro-N-(3-(quinoxalin-6-yloxy)phenyl)benzamide] |

— patent US10590106B2, “Certain chemical entities, compositions, and methods” (NeuPharma, Inc., priority 2012, dated 2020)
